In patent US11442059B2, “Method for treating a chronic itch condition by administering small molecule MrgprX4 antagonists” (The Johns Hopkins University, priority 2017, dated 2022):
“And” between values parts separate entries of the source, which are not always exact repeats. Equal entries are not always repeated. Each block holds one molecule with its values, some of them ahead of it. Non-standard residues stand in square brackets, D forms with d. No end group written: not given here. *: point of attachment. Boc = CC(C)(C)OC(=O)*; OBn = c1ccc(CO*)cc1; For = O=C*

Tests used:
MRGPRX4 [1] = molecular target: T1, MRGPRX4 (Homo sapiens, UniProt Q96LA9); assay: Microscale thermophoresis binding assay, MRGPRX4; set-up: expressed in transfected cells; whole cells or crude membrane fraction
T1 sequence (Q96LA9 whole entry): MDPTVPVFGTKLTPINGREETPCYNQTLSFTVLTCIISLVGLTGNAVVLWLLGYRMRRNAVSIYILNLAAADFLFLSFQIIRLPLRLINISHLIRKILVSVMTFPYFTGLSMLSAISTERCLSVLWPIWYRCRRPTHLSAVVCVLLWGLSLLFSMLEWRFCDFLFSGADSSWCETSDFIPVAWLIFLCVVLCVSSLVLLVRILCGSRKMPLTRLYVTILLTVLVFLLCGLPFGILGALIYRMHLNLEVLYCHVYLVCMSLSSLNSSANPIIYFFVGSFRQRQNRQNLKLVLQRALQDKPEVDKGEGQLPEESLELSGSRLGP
Procedure: (§1) Binding isotherms for MRGPRA1, MRGPRX4, and MRGRPC11 towards various ligands were determined by microscale thermophoresis with the NanoTemper monolith NT.115 instrument^27. Ligands were pre-incubated with 10 μM of the GFP-tagged receptor of interest for 5 minutes at room temperature in binding buffer (20 mM Tris and 150 mM NaCl at pH 8.8). Receptors were crudely purified as a membrane fraction from cells stably expressing the receptor^45. Haem metabolites were freshly dissolved in 0.1 M NaOH in dim light and then diluted into assay buffer. Lyophilized BAMS-22 was dissolved in binding buffer. The pH of each ligand was evaluated prior to incubation with a receptor. Samples were loaded into NT.115 Hydrophobic-Treated Capillaries from NanoTemper. Microscale thermophoretic experiments were executed using 20% LED power and 15% MST power. KDs were calculated using the law of mass action with data from three independent experiments. Binding between bilirubin and receptors was evaluated purely thermophoretically, whereas binding between BAMS-22 and MRGPRC11 was evaluated by T-Jump. Samples with dramatic deviations in initial fluorescence were excluded.

MrgprA1 [2] = molecular target: T2, MrgprA1 (Mus musculus, UniProt Q91WW5); assay: Fura 2-AM calcium imaging, EC50 and IC50 determinations, MRGPRA1 HEK293 cells; assay type: cell-based; conditions: HEK293 cells, Fura 2-AM; interval [96, 220]; read-out: EC50 calcium response MRGPRA1
T2 construct: expressed in transfected cells; whole cells or crude membrane fraction
T2 sequence (Q91WW5 1-304): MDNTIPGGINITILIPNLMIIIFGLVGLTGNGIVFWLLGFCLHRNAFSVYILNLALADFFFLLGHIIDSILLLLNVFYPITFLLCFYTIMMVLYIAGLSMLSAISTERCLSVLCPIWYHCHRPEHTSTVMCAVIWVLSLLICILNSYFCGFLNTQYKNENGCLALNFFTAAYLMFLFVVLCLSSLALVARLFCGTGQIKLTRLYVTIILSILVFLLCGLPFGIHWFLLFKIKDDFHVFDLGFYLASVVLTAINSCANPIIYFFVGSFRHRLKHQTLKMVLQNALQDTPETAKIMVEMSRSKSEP
Procedure: (§2) Cells were imaged in calcium imaging buffer (CIB; 10 mM HEPES, 1.2 mM NaHCO3, 130 mM NaCl, 3 mM KCl, 2.5 mM CaCl2, 0.6 mM MgCl2, 20 mM glucose, and 20 mM sucrose at pH 7.4 and 290-300 mOsm). To monitor changes in intracellular [Ca^2+] ([Ca^2+]i), cells were loaded with either Fura 2-AM (HEK293 cells) or Fluo 4-AM (DRG neurons and mast cells) for 30 min in the dark at 37° C. in CIB just prior to imaging. With Fura 2-AM, emission at 510 nm was monitored from excitation at both 340 nm and 380 nm. With Fluo 4-AM, emission at 520 nm was monitored from excitation at 488 nm. Cells were identified as responding if the intracellular [Ca^2+] rose by either 50% compared to baseline or 50% compared to the [Ca^2+]i change assayed during addition of 50 mM KCl (neurons only). Damaged, detached, high-baseline, and motion-activated cells were excluded from analysis.
(§3) In initial screens, HEK293 cells stably expressing the murine G-protein alpha-subunit Gα15, a unique Gα protein that non-selectively couples a large variety of GPCRs to phospholipase C^30, were plated on poly-D-lysine-coated coverslips and transiently transfected with constructs encoding the MRGRPR of interest. 12-24 h later, cells were loaded with the Fura 2-AM. Unless otherwise specified, compounds were perfused into the imaging chamber for approximately thirty seconds after a baseline period was established. Response was then monitored at 5 s intervals for an additional 60 s.
HEK293 cells stably expressing either MRGPRA1, MRGPRX4, and MRGRPC11 were seeded in poly-D-lysine-coated 96-well plates at 10,000 cells/well. Cells were loaded with Fura 2-AM, washed twice, and maintained in CIB. Haem metabolites were freshly dissolved in DMSO in dim light and then diluted into a buffer comprised of 20 mM Tris and 150 mM NaCl at pH 8.8. Potential changes in pH were evaluated prior to each experiment. EC50 values were determined from dose-responses performed in triplicate, repeated 2-4 times. To determine potential antagonism by QWF against bilirubin, cells were treated with varying doses of QWF for 1 min in CIB prior to application of agonist.

MRGPRX4 [3] = molecular target: T1, MRGPRX4; assay: FLIPR calcium assay (Flexstation3), HEK cells stably expressing MrgprX4; assay type: cell-based; set-up: expressed in transfected cells; whole cells or crude membrane fraction; conditions: FLIPR calcium dye, FIG. 18B
Procedure: (§4) EC50s were calculated using HEK cells stably expressing either MrgprA1 or MrgprX4. Cells were loaded with FLIPR calcium imaging dye, and a Flexstation3 machine (Molecular Devices) was used for reading changes in fluorescence. Wells were run in triplicate, and all values from each plate were normalized to the highest responding well. […] The x-axis depicts a modified logarithmic scale. […] FIG. 18B is a graph depicting the EC50 for MrgprX4 for bilirubin is approximately 3 μM.

MrgprA1 [4] = molecular target: T2, MrgprA1; assay: Microscale thermophoresis binding assay, MRGPRA1
Procedure: as §1

MRGPRX4 [5] = molecular target: T1, MRGPRX4; assay: Fura 2-AM calcium imaging, EC50 determinations, MRGPRX4 HEK293 cells; assay type: cell-based; set-up: expressed in transfected cells; whole cells or crude membrane fraction; conditions: HEK293 cells, Fura 2-AM; interval [44, 87]; read-out: EC50 calcium response MRGPRX4
Procedure: as §2, §3
HEK293 cells stably expressing either MRGPRA1, MRGPRX4, and MRGRPC11 were seeded in poly-D-lysine-coated 96-well plates at 10,000 cells/well. Cells were loaded with Fura 2-AM, washed twice, and maintained in CIB. Haem metabolites were freshly dissolved in DMSO in dim light and then diluted into a buffer comprised of 20 mM Tris and 150 mM NaCl at pH 8.8. Potential changes in pH were evaluated prior to each experiment. EC50 values were determined from dose-responses performed in triplicate, repeated 2-4 times. […]

DRG neurons = assay: Calcium imaging of dissociated DRG neurons; assay type: cell-based, mouse; conditions: Venn diagram FIG. 30A; Overlap=13
MrgprA1 [6] = molecular target: T2, MrgprA1; assay: FLIPR calcium assay (Flexstation3), HEK cells stably expressing MrgprA1; assay type: cell-based; conditions: HEK cells, FLIPR calcium dye, FIG. 18A
Procedure: as §4

mice = assay: Acute itch behaviour after injection (scratching bouts); assay type: in vivo, mouse; conditions: bilirubin injection
human keratinocytes = assay: Ca2+ response of primary human keratinocytes; assay type: cell-based
MRGPRX3 = molecular target: T3, MRGPRX3 (Homo sapiens, UniProt Q96LB0); assay: Ca2+ response of HEK cells expressing MRGPRX3; assay type: cell-based
T3 construct: expressed in transfected cells; host or cells: HEK cells
T3 sequence (Q96LB0 whole entry): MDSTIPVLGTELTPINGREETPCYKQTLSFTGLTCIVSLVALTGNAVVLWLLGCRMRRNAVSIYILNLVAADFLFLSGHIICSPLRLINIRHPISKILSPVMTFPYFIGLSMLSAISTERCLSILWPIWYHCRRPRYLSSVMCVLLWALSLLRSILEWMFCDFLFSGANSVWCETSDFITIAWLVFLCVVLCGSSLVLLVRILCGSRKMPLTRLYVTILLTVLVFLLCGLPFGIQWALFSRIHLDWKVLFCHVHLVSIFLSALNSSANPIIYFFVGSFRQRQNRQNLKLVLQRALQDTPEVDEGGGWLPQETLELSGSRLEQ

MrgprA6 = molecular target: T4, MrgprA6 (Mus musculus, UniProt Q91ZC6); assay: Ca2+ response of cells expressing mouse MrgprA6; assay type: cell-based
T4 construct: expressed in transfected cells; host or cells: HEK293 (transient, pcDNA3.1)
T4 sequence (Q91ZC6 1-301): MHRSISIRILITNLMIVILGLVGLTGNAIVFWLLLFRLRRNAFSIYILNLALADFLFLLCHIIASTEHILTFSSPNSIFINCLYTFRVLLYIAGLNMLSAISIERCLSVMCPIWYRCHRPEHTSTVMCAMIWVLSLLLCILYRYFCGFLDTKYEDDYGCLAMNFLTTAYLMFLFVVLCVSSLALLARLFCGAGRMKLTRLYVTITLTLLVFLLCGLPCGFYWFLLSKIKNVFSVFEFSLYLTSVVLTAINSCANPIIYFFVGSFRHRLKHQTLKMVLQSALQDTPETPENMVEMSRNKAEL

[7] = test system: MrgprA1, A4, A12, B3, and B6; assay: Ca2+ response of cells expressing other keratinocyte Mrgprs; assay type: cell-based, mouse
[8] = molecular target: T5, murine MRGPRA1 stably expressed in HEK293 cells (GFP-tagged, pEGFP-N1) (mouse, UniProt Q91WW5 1-304); assay: cell-based or functional assay
T5 sequence (looked up): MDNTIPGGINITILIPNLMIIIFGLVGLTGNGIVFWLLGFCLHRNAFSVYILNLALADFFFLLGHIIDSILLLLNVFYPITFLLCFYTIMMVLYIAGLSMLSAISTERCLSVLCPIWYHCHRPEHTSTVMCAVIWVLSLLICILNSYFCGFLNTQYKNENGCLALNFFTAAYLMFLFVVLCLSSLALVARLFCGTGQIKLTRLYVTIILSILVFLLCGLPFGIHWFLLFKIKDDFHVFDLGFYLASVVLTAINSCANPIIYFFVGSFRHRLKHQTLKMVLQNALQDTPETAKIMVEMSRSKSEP

activation of MrgprA6 (MrgprA6): strongly activated
Molecule: mBD14: mouse Beta-Defensin-14, mouse homologue of hBD3 (FLPKTLRKFFCRIRGGRCAVLNCLGKEEQIGRCSNSGRKCCRKKK; ends and bridges not checked; cysteine pairing not given here)
response of MrgprA1, A4, A12, B3, and B6 [7]: did not show any response

IC50 for inhibition of bilirubin-induced Ca^2+ signal in MRGPRA1-expressing HEK cells (200 µM bilirubin) [8]: 2.9 µM
Molecule: Boc-Gln-[dW](For)-Phe-OBn [BOC-GLN-D-(FORMYL)TRP-PHE-BENZYLESTER (QWF)]

Further lines, the molecule ahead of its results:

Molecule: C=CC1=C(C)/C(=C/c2[nH]c(Cc3[nH]c(/C=C4\NC(=O)C(C)=C4C=C)c(C)c3CCC(=O)O)c(CCC(=O)O)c2C)NC1=O [bilirubin, bilirubin IXa]
Kd (MRGPRX4 [1]): 54.4 ± 13 µM
EC50 (MrgprA1 [2]): 146 µM
EC50 (MRGPRX4 [3]): ~3 µM and 2 µM
Kd (MrgprA1 [4]): 92.9 ± 15 µM
EC50 (MRGPRX4 [5]): 61.9 µM
total neurons activated by the compound alone (DRG neurons): 7
EC50 (MrgprA1 [6]): ~49 µM
scratching of Cluster−/− animals less than wild type (mice): approximately 75%

Molecule: hBD3: synthetic human Beta-defensin 3, antimicrobial peptide (GIINTLQKYYCRVRGGRCAVLSCLPKEEQIGKCSTRGRKCCRRKK; ends and bridges not checked; cysteine pairing not given here)
percentage of keratinocytes that responded (human keratinocytes; primary human keratinocytes after MRGPRX3 siRNA knock down): < 20%
percentage of keratinocytes that responded (human keratinocytes; primary human keratinocytes, control): > 80%
Ca2+ response of MRGPRX3 HEK cells (MRGPRX3): robust Ca^2+ response
